# Reference: patent US9732068B1, “System for crystalizing chemical compounds and methodologies for utilizing the same” (GenSyn Technologies, Inc., priority 2013, dated 2017)
# Assay: Particle size measurement of crystallized compound with Horiba L950 particle size analyzer
# Type: physicochemical
# Details: for Span: Span=(D90-D10)/D50; for median particle size: final solution after crystallization in system 10
# Excerpt: Just as importantly as desirable small particle sizes is uniformity of particle size distributions (i.e., described by “D values”). D values of “D10”, “D50” and “D90” may be used to represent the midpoint and range of particle sizes of a given sample. The D10 particle size is the diameter at which 10% of a sample's mass is comprised of smaller particles. The D50 is the “mass median diameter” as it divides the sample equally by mass. The D90 particle size is the diameter at which 90% of a sample's mass is comprised of smaller particles.
# System 10 of the present invention enables the production of customized particles within a narrow range of particle sizes. A common value used to express the uniformity of particle size distribution is the “span”. The span is a measure of how wide of a spectrum of particle sizes is produced. A system with a low relative span is desirable as it will produce more uniform distribution of particle sizes. Span can be calculated with the equation below: Span=(D90−D10)/D50.
# Two grams of Paracetomol was dissolved in 100 grams of ethanol. Two grams of Soy Lecithin was dissolved in 50 grams of tetrahydrofuran (THF). The two solutions were combined and heated to 60° C. The solution was added to the input hopper of a dual piston pump 241. The pump 241 was fed into fluid input conduit 121 of the crystallization chamber 22 through a 0.006″ opening 701 of a nozzle 581. Heptane, at 10° C. was fed into fluid input conduits 122, 123 and 124 through 0.006″, 0.008″ and 0.008″ openings 702, 703, and 704 of nozzles 582, 583, and 584 respectively by an identical piston pump 242. The pressure on both pumps 241 and 242 was adjusted to 1000 psi. The mixed streams exited through fluid output conduit 32 and into fluid reservoir 34 containing approximately 100 ml of heptane. Approximately, the first third and last third of the mixture were discarded and only the central third collected in fluid reservoir 34. The final solution was sampled and the particle size was measured, in heptane, using a Horiba L950 particle size analyzer. The median particle size was about 1.3 microns. The Span was about 0.901.
# Two grams of Carbamazepine was dissolved in 100 grams of ethanol. Two grams of Soy Lecithin was dissolved in 50 grams of THF. The two solutions were combined and heated to 60° C. The solution was added to the input hopper of a dual piston pump 241. The pump 241 was fed into fluid input conduit 121 of the crystallization chamber 22 through a 0.004″ opening 701 of a nozzle 581. Heptane, at 10° C. was fed into fluid input conduits 122, 123 and 124 through 0.006″, 0.007″ and 0.007″ openings 702, 703, and 704 of nozzles 582, 583, and 584 respectively by an identical piston pump 242. The pressure on both pumps 241 and 242 was adjusted to 1500 psi. The mixed streams exited through fluid output conduit 32 and into fluid reservoir 34 containing approximately 100 ml of heptane. Approximately, the first third and last third of the mixture were discarded and only the central third collected in fluid reservoir 34. The final solution was sampled and the particle size was measured, in heptane, using a Horiba L950 particle size analyzer. The median particle size was about 1.5 microns. The Span was about 0.916.
# Two grams of Ketoprofen was dissolved in 100 grams of DMSO. Two grams of Sorbitan Monostearate was dissolved in 50 grams of THF. The two solutions were combined and heated to 60° C. The solution was added to the input hopper of a dual piston pump 241. The pump 241 was fed into fluid input conduits 121 of the crystallization chamber 22 through a 0.004″ opening 701 of a nozzle 581. DI water with 0.1% Polysorbate 20, at 5° C. was fed into fluid input conduits 122, 123 and 124 through 0.006″, 0.008″ and 0.008″ openings 702, 703, and 704 of nozzles 582, 583, and 584 respectively by an identical piston pump 242. The pressure on both pumps 241 and 242 was adjusted to 1500 psi. […]
SMILES,Span (measured in DI water),median particle size (measured in DI water),Span (measured in heptane),median particle size (measured in heptane)
"CC(C(=O)O)c1cccc(C(=O)c2ccccc2)c1 (racemic) [Ketoprofen, (RS)-2-(3-benzoylphenyl)propanoic acid]",about 1.078,about 3.1 microns,,
"CC(C)c1c(C(=O)Nc2ccccc2)c(-c2ccccc2)c(-c2ccc(F)cc2)n1CC[C@@H](O)C[C@@H](O)CC(=O)O [Atorvastatin, (3R,5R)-7-[2-(4-fluorophenyl)-3-phenyl-4-(phenylcarbamoyl)-5-propan-2-ylpyrrol-1-yl]-3,5-dihydroxyheptanoic acid]",about 0.99,about 126 nanometers,,
"CC(=O)Nc1ccc(O)cc1 [Paracetomol, N-(4-hydroxyphenyl)ethanamide]",,,about 0.901,about 1.3 microns
"NC(=O)N1c2ccccc2C=Cc2ccccc21 [Carbamazepine, 5H-dibenzo[b,f]azepine-5-carboxamide]",,,about 0.916,about 1.5 microns
